Among the data in US9586900B2, “Pyrrolone or pyrrolidinone melanin concentrating hormone receptor-1 antagonists” (BRISTOL-MYERS SQUIBB COMPANY, priority 2012, dated 2017) are Ki values, retold here.

This test deals with human melanin concentrating hormone receptor (MCHR1) (Homo sapiens (Human), UniProt Q99705, A5T/E4Q). Nature of the test: Radioligand binding assay for assessment of MCHR1 activity. Particulars: membranes of HEK-293 cells expressing mutated (E4Q, A5T) hMCHR1, competition with [Phe13,[125I]Tyr19]-MCH. As for the experimental part: Radioligand Binding Assay for Assessment of MCHR1 Activity
Sequence of human melanin concentrating hormone receptor (MCHR1) (Q99705 whole entry E4Q/A5T): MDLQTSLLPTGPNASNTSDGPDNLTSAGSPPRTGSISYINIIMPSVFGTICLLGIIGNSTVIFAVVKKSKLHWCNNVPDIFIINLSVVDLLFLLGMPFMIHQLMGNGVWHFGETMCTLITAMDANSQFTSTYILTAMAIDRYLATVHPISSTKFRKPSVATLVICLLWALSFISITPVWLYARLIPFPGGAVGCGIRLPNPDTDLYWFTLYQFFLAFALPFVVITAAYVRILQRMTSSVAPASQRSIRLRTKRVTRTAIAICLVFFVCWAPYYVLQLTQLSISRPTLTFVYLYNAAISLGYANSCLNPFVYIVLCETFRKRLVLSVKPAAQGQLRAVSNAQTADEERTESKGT
An in vitro binding assay was used to determine the compound Ki value or ability to antagonize binding of a peptide agonist to the human melanin concentrating hormone receptor (MCHR1). […] Binding experiments were carried out with 0.5-1.0 μg of membrane protein incubated in a total of 0.2 mL in 25 mM HEPES (pH 7.4) with 10 mM MgCl2, 2 mM EGTA, and 0.1% BSA (Binding Buffer) for 90 min. For competition binding assays, reactions were carried out in the presence of with 0.06-0.1 nM [Phe^13, [^125I]Tyr^19]-MCH and increasing concentrations of unlabeled test molecules. […] Filters were dried, 0.05 mL MicroScint 20 was added to each well and radioactivity was subsequently quantified by scintillation counting on a TOPCOUNT® microplate scintillation counter (Packard). Inhibitory constants were determined by nonlinear least squares analysis using a four parameter logistic equation.

`COc1cc(N2CC[C@@H](Oc3ccc(C(F)(F)F)cc3)C2=O)ccc1OCC(C)(C)O` [Example 9, (R)-1-(4-(2-Hydroxy-2-methylpropoxy)-3-methoxyphenyl)-3-(4-(trifluoromethyl)phenoxy)pyrrolidin-2-one] displayed a Ki (Table A) of 23 nM.

Regarding `COc1cc(N2CC[C@H](Oc3ccc(C(F)(F)F)cc3)C2=O)ccc1OCC(C)(C)O` [Example 10, (S)-1-(4-(2-Hydroxy-2-methylpropoxy)-3-methoxyphenyl)-3-(4-(trifluoromethyl)phenoxy)pyrrolidin-2-one], the affinity (Table A) corresponds to a Ki of 6000 nM.

`Cc1cc(N2CCC(Oc3ccc(OC(F)(F)F)cc3)C2=O)ccc1OCC[S+](C)[O-]` (stereo not shown) [Example 101, 1-(3-Methyl-4-(2-(methylsulfinyl)ethoxy)phenyl)-3-(4-(trifluoromethoxy)phenoxy)pyrrolidin-2-one]: the Ki (Table C) amounted to 77 nM. This counts as double-digit nanomolar.

Take `Cc1cc(N2CC[C@@H](Oc3ccc(-c4ccccc4)cc3)C2=O)ccc1OCCS(C)(=O)=O` [Example 105, (R)-3-(Biphenyl-4-yloxy)-1-(3-methyl-4-(2-(methylsulfonyl)ethoxy)phenyl)pyrrolidin-2-one]: the Ki (Table C) was determined as 2 nM.

On to `Cc1cc(N2CC[C@H](Oc3ccc(-c4ccccc4)cc3)C2=O)ccc1OCCS(C)(=O)=O` [Example 106, (S)-3-(Biphenyl-4-yloxy)-1-(3-methyl-4-(2-(methylsulfonyl)ethoxy)phenyl)pyrrolidin-2-one], for which the Ki (Table C) came out at 636 nM.

For `Cc1cc(N2CCC(Oc3ccc(-c4ccccc4F)cc3)C2=O)ccc1OCCS(C)(=O)=O` (stereo not shown) [Example 107], the Ki (Table C) is 5 nM.

For the setting “Table C”, `Cc1cc(N2CCC(Oc3ccc(-c4ccncc4)cc3)C2=O)ccc1OCCS(C)(=O)=O` (stereo not shown) [Example 113, 1-(3-Methyl-4-(2-(methylsulfonyl)ethoxy)phenyl)-3-(4-(pyridin-4-yl)phenoxy)pyrrolidin-2-one] returned a Ki of 55 nM.

In turn, `Cc1cc(N2CCC(Oc3ccc(C4CC4)cc3)C2=O)ccc1OCCS(C)(=O)=O` (stereo not shown) [Example 114] came in with a Ki (Table C) of 7 nM.

Under “Table D”, `COc1cc(N2CC=C(Oc3ccc(C4CC4)cc3)C2=O)ccc1OCC(C)(C)O` [Example 116, 3-(4-Cyclopropylphenoxy)-1-(4-(2-hydroxy-2-methylpropoxy)-3-methoxyphenyl)-1H-pyrrol-2(5H)-one] registered a Ki of 3 nM.

On to `COc1cc(N2CC=C(Oc3ccc(C4CC4)cc3)C2=O)ccc1O` [Example 120], for which, for the setting “Table D”, the Ki was 10 nM.

In general, Ki refers to the dissociation constant of the complex between target and ligand, obtained from inhibition or displacement. Low values mean tighter binding, high ones weaker binding.
